These results are taken from US11046672B2, “Indolinones compounds and their use in the treatment of fibrotic diseases” (RESPIVERT LIMITED, priority 2015, dated 2021).

Structures are written as SMILES. Where two headings read alike, the source gives them in different places.

Series [1] deals with T1, PDGFRβ (Homo sapiens (Human), UniProt P09619). Put plainly: PDGF-BB induced phosphorylation of PDGFRβ in fibroblasts (MRC5 cells, HTRF). Format: cell-based. The following applies: MRC5 cells; n = 1 unless otherwise indicated; read-out: PDGFBB-induced PDGFRβ phosphorylation in MRC5 cells (IC50). Background: TR-FRET usually uses a lanthanide donor and a delayed reading to cut background.

Another series deals with MRC5 cells. Nature of the series: Cell viability assay in MRC5 cells (MTT).
Series [2] has as its target T1, PDGFRβ. The following applies: read-out: Ki PDGFRβ; mean, n = 2 unless otherwise indicated.
Another series can be described thus: PAMPA permeability assay. To be noted: PAMPA; for recovery at 5 hr, 10 μM: pH 7, PAMPA, donor and acceptor compartments; for Papp at 5 h, 10 μM: pH 7, pH 7, 10 μM. The format is in vitro ADME.
The nature of series [3]: Pharmacokinetic measurements in mice (intravenous and intra-nasal dosing). The format is in vivo. To be noted: mouse; for concentration at 0.1 h / concentration at 1.5 h / concentration at 24 h: lung, read-out: lung concentration (nM) at time (h).
Series [4] can be described thus: Pharmacokinetic measurements in rats (intravenous and intra-tracheal dosing). The format is in vivo. The following applies: rat.

T1 sequence (P09619 33-1106): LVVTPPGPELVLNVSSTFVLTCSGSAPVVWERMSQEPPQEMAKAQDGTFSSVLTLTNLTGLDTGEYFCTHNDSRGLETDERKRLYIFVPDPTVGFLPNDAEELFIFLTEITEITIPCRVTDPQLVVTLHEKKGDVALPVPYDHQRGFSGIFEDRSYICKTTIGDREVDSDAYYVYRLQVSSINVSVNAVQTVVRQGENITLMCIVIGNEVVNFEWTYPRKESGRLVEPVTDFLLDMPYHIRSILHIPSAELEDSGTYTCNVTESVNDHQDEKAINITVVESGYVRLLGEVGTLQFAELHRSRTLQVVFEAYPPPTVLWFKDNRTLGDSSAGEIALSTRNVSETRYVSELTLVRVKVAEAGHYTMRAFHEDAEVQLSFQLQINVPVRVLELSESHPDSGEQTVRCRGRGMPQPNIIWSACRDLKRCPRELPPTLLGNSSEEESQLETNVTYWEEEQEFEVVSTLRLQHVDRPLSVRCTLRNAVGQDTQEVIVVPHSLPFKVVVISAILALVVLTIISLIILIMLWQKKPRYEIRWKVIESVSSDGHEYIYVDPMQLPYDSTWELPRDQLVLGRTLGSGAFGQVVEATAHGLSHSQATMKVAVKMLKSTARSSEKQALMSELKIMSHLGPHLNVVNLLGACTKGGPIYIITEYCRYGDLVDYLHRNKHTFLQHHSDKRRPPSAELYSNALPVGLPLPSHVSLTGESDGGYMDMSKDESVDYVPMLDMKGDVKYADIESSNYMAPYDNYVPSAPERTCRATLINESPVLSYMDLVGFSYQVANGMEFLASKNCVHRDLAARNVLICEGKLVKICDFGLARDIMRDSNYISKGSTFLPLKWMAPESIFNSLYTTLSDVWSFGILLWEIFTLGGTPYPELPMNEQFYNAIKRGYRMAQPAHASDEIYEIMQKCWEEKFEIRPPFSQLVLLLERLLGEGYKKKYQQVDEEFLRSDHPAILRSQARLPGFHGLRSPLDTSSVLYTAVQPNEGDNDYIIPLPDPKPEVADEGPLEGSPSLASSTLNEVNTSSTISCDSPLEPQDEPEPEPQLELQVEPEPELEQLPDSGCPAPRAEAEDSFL

One may read the IC50 as the concentration needed to halve the response being measured. The term Ki denotes a dissociation constant, usually derived from enzyme kinetics or from competition with a known ligand. As for `COC(=O)c1cc2c(cc1C)/C(=C(/Nc1ccc(C(=O)N(C)OCCN3CC4CC(C3)N4)cc1)c1ccccc1)C(=O)N2` [Example 66], at PDGFRβ [1], the IC50 was 15.5 nM. In addition, in the series on MRC5 cells, the “Cell viability at 100 nM (%)” value amounted to 102.8%, the “Cell viability at 300 nM (%)” value came to 92.9% and the “Cell viability at 1000 nM (%)” value was 53.8%. Moreover, at PDGFRβ [2], the Ki came out at 16 nM.

One may read the Papp as the rate of passage across a membrane or cell layer, normalised by area and donor concentration. A higher Papp goes with ready permeation. In the case of `COC(=O)c1ccc2c(c1)NC(=O)/C2=C(\Nc1ccc(C(=O)NOCCN2CCN(C)CC2)c(C)c1)c1ccccc1` [Example 17], in “PAMPA permeability assay”, the recovery at 5 hr, 10 μM amounted to 91.9% and the Papp at 5 h, 10 μM is 0.0142 ×10⁻⁶ cm/s. Further, in the series on MRC5 cells, the “Cell viability at 100 nM (%)” value came out at 83%, the “Cell viability at 300 nM (%)” value is listed as 90.5% and the “Cell viability at 1000 nM (%)” value is listed as 92.5%. Also, the Ki on PDGFRβ [2] was 11.7 nM.

The MRT is a mean duration of stay, worked out from the concentration-time curve. For the compound `COC(=O)c1ccc2c(c1)NC(=O)/C2=C(\Nc1ccc(N(C)C(=O)CN2CCN(C)CC2)cc1)c1ccccc1` [Nintedanib, reference compound], the concentration at 0.1 h in series [3] (male, C57BL/6J, iv, i.v. dosing, 0.1 h, mean) came to 2380 nM; in series [3] (male, C57BL/6J, other: intra-nasal, i.n. dosing, 0.1 h, mean), 2760 nM. Further, the concentration at 1.5 h in series [3] (male, C57BL/6J, iv, i.v. dosing, 1.5 h, mean) stood at 1340 nM; in series [3] (male, C57BL/6J, other: intra-nasal, i.n. dosing, 1.5 h, mean) it was 804 nM. The concentration at 24 h amounted to 10 nM in series [3] (male, C57BL/6J, iv, i.v. dosing, mean) and 15 nM in series [3] (male, C57BL/6J, other: intra-nasal, i.n. dosing, mean). In addition, in series [3] (male, C57BL/6J, whole blood, iv), the clearance came out at 81 mL/min/kg. For the same compound, the MRT in series [3] (male, C57BL/6J, whole blood, iv, i.v. dosing, mean) was determined as 2 h. In addition, the Vd in series [3] (male, C57BL/6J, whole blood, iv, i.v. dosing, mean, read-out: Vss) was found to be 10 L/kg. Moreover, in series [3] (male, C57BL/6J, whole blood, iv, i.v. dosing, mean, read-out: t½ (converted)), the half-life is 2 h. Further, the “BAL % administered dose at time (h)” value in series [3] (i.n. dosing, 0.1 h) is listed as 0.5%; in series [3] (i.n. dosing, 1.5 h), 0.1%; in series [3] (i.v. dosing, 0.1 h) it was 0.3%; in series [3] (i.v. dosing, 1.5 h) it was 0.03%; in series [4] (i.t. dosing, 0.1 h), 2%; in series [4] (i.t. dosing, 1.5 h) it was 1%. Also, the “BAL % administered dose at time (h)” value was 0.1% in series [4] (i.t. dosing, 24 h); 0.06% in series [4] (i.v. dosing, 0.1 h); 0.03% in series [4] (i.v. dosing, 1.5 h); “BQL” in series [4] (i.v. dosing, 24 h). Further, the “Cell viability at 100 nM (%)” value with MRC5 cells is given as 104.6%. Moreover, in the series on MRC5 cells, the “Cell viability at 300 nM (%)” value was 105.6%. Further, the “Cell viability at 1000 nM (%)” value with MRC5 cells was found to be 92.7%. Besides, the “i.t. BAV (%)” value in series [4] (i.t. dosing (i.t. dose 0.1-0.5 per compound)) turned out to be 43%.

Turning to `CNC(=O)CN1CCN(CCON(C)C(=O)c2ccc(N/C(=C3\C(=O)Nc4cc(C(=O)OC)ccc43)c3ccccc3)cc2)CC1` [Example 71], the IC50 at PDGFRβ [1] worked out at 23.2 nM.

Turning to `COC(=O)c1ccc2c(c1)NC(=O)/C2=C(\Nc1ccc(C(=O)NOCCN2CCN(CCO)CC2)cc1)c1ccccc1` [Example 39], at PDGFRβ [1], the IC50 turned out to be 33.8 nM. In addition, in the series on MRC5 cells, the “Cell viability at 100 nM (%)” value is given as 89.9%, the “Cell viability at 300 nM (%)” value was determined as 90.1% and the “Cell viability at 1000 nM (%)” value stood at 90.8%. Also, on PDGFRβ [2], the Ki is 5.39 nM.

As for `COC(=O)c1ccc2c(c1)NC(=O)/C2=C(\Nc1ccc(C(=O)N(OC)C2CCN(C)CC2)cc1)c1ccccc1` [Example 21], the IC50 at PDGFRβ [1] is 6.79 nM. In addition, in the series on MRC5 cells, the “Cell viability at 100 nM (%)” value is listed as 95.5%, the “Cell viability at 300 nM (%)” value was 86.6% and the “Cell viability at 1000 nM (%)” value was found to be 53%. Further, at PDGFRβ [2], the Ki stood at 10.2 nM.

Consider `COC(=O)c1ccc2c(c1)NC(=O)/C2=C(\Nc1ccc(C(=O)NOCCN2CCCCC2)cc1)c1ccccc1` [Example 8, (Z)-Methyl 2-oxo-3-(phenyl((4-((2-(piperidin-1-yl)ethoxy)carbamoyl)phenyl)amino)methylene)indoline-6-carboxylate], for which the IC50 on PDGFRβ [1] came out at 21.5 nM. Besides, in the series with MRC5 cells, the “Cell viability at 100 nM (%)” value is 93.4%, the “Cell viability at 300 nM (%)” value came to 95.7% and the “Cell viability at 1000 nM (%)” value came to 91%. In addition, on PDGFRβ [2], the Ki was found to be 27.8 nM.

For `COC(=O)c1cc2c(cc1C)/C(=C(/Nc1ccc(C(=O)NOCCN3CCC(O)CC3)cc1)c1ccccc1)C(=O)N2` [Example 54], the IC50 on PDGFRβ [1] was determined as 34.1 nM. In addition, in the series on MRC5 cells, the “Cell viability at 100 nM (%)” value is 101%, the “Cell viability at 300 nM (%)” value was 99.8% and the “Cell viability at 1000 nM (%)” value was 92.9%. Also, the Ki on PDGFRβ [2] was determined as 18.1 nM.

Turning to `COC(=O)c1ccc2c(c1)NC(=O)/C2=C(\Nc1ccc(C(=O)N(CCN(C)C)OC)cc1)c1ccccc1` [Example 23], in “PAMPA permeability assay”, the recovery at 5 hr, 10 μM came to 51.8% and the Papp at 5 h, 10 μM worked out at 20 ×10⁻⁶ cm/s. Also, in the series with MRC5 cells, the “Cell viability at 100 nM (%)” value came to 93.1%, the “Cell viability at 300 nM (%)” value worked out at 85.9% and the “Cell viability at 1000 nM (%)” value worked out at 67.9%. The Ki on PDGFRβ [2] stood at 12.2 nM.

In the case of `CCN(OCCN1CCNCC1)C(=O)c1ccc(N/C(=C2\C(=O)Nc3cc(C(=O)OC)c(C)cc32)c2ccccc2)cc1` [Example 68], on PDGFRβ [1], the half-maximal inhibitory concentration (IC50) came to 16.5 nM.
